From patent publication US20230391729A1, “SUCCINATE SALTS OF N-(3-(4-(3-(DIISOBUTYLAMINO)PROPYL)PIPERAZIN-1-YL)PROPYL)-1H-BENZO[D]IMIDAZOL-2-AMINE, PREPARATION THEREOF AND USE OF THE SAME” (ALZPROTECT, priority 2020, published 2023)

Tests used:
PGRN = assay: Extracellular progranulin quantification by ELISA after Aβ1-42 injury; assay type: cell-based, rat; conditions: Aβ1-42 injury 72 h; 10 nM
Method: Rat cortical neurons cultured with microglia were cultured as described by Callizot et al. in J Neurosci Res. 2013, 91: 706-716 with modifications to include microglial cells. Pregnant female rats (Rats Wistar; Janvier Labs France) of 15 days of gestation were killed, after a deep anesthesia with CO2, by cervical dislocation. Then, fetuses were collected and immediately placed in ice-cold L15 Leibovitz medium with a 2% penicillin (10,000 U/ml) and streptomycin (10 mg/ml) solution (PS) and 1% bovine serum albumin (BSA). Cortexes were treated for 20 min at 37° C. with a trypsin-EDTA solution at a final concentration of 0.05% trypsin and 0.02% EDTA. […] Viable cells were counted in a Neubauer cytometer, using the trypan blue exclusion test. […]
Cortical neurons were intoxicated with A3 solutions (see below) after 11 days of culture. […] This solution was gently agitated for 3 days at 37° C. in the dark and immediately used after being properly diluted in control medium to the concentrations used ([…] of Aβ1-42 preparation containing […] of Aβ oligomers (AβO) measured by WB). […]
Levels of PGRN in the culture medium were determined by ELISA (Progranulin (rat) ELISA lit, Adipogen, Coger) according to manufacturer's recommendations. […] Optical density (OD) was assessed by spectrophotometry at 450 nm wavelength with a Glomax apparatus (Promega). […]

[1] = system: dopaminergic (TH positive) neurons; assay: Survival and neurite network of TH(+) mesencephalic neurons after rotenone injury; assay type: cell-based, rat; conditions: rotenone 10 nM 24 h
Method: Rat dopaminergic neurons were cultured as described by Visanji et al. in FASEB J. 2008, 22(7): 2488-2497 and Callizot et al., in Plos One 2019: https://doi.org/10.1371/journal.pone.0215277. Briefly, pregnant female rat (Wistar) of 15 days of gestation were killed using a deep anesthesia with CO2 chamber and a cervical dislocation. The midbrains obtained from 15-day-old rat embryos (Janvier, France) were dissected under a microscope. The embryonic midbrains were removed and placed in ice-cold medium of Leibovitz (L15) containing 2% of Penicillin-Streptomycin (PS) and 1% of BSA. The ventral portion of the mesencephalic flexure, a region of the developing brain rich in dopaminergic neurons, were used for the cell preparations. The midbrains were dissociated by trypsinization for 20 min at 37° C. (solution at a final concentration of 0.05% trypsin and 0.02% EDTA). The reaction was stopped by the addition of DMEM containing DNAase I grade II (0.5 mg/mL) and 10% of FCS. Cells were then mechanically dissociated by 3 passages through a 10 ml pipette. Cells were then centrifuged at 180×g for 10 min at +4° C. on a layer of BSA (3.5%) in L15 medium. The supernatant was discarded and the cell pellets were re-suspended in a defined culture medium consisting of Neurobasal supplemented with B27 (2%), L-glutamine (2 mM) and 2% of PS solution and 10 ng/mL of BDNF and 1 ng/mL of Glial-Derived Neurotrophic Factor (GDNF). Viable cells were counted in a Neubauer cytometer using the trypan blue exclusion test. The cells were seeded at a density of 40,000 cells/well in 96 well-plates (pre-coated with poly-L-lysine) and maintained in a humidified incubator at 37° C. in 5% CO2/95% air atmosphere. Half of the medium was changed every 2 days with fresh medium. […]
The following read-outs were investigated: • neuron survival: total number of TH neurons (TH staining), • neurite network: total length of neurite network of TH positive neurons (in μm) • α-syn aggregation (area of overlapping between TH and α-syn staining in μm^2) […]

## N-(3-(4-(3-(diisobutylamino)propyl)piperazin-1-yl)propyl)-1H-benzo[d]imidazol-2-amine sesqui-succinate salt [sesqui-succinate salt Form 1]
PGRN
  levels of extracellular PGRN: significantly increased
[1]; administered directly with rotenone, all concentrations
  neuron survival: total number of TH neurons: significantly increased neuronal survival
[1]; pre and co-treatment, 10 to 100 nM
  neurite network of TH positive neurons: significantly improved
[1]; pre-incubated, 10 and 50 nM
  neuron survival: total number of TH neurons: significantly neuroprotective
